In US10975078B2, “Fused indazole pyridone compounds as antivirals” (priority 2017, dated 2021):

Test system: HBsAg secretion, HepG2-Clone42 cells (Tet-inducible HBV-expressing, HBV ayw strain)
Test: HBsAg assay (HBsAg ELISA, secreted HBV sAg from HepG2-Clone42 cells)
Type: cell-based
Conditions: Hepatitis B virus, read-out: HBsAg (nM), EC50 = concentration at which HBsAg secretion was reduced 50% compared to DMSO control
Procedure: HepG2-Clone42, a Tet-inducible HBV-expressing cell line with a stably integrated 1.3 mer copy of the HBV ayw strain, was generated based on the Tet-inducible HepAD38 cell line with slight modifications. Ladner S K, et al., Antimicrobial Agents and Chemotherapy. 41(8):1715-1720 (1997). HepG2-Clone42 cells were cultured in DMEM/F-12+Glutamax™ (Life Technologies, Carlsbad, Calif., USA), supplemented with 10% fetal bovine serum (Life Technologies), G-418 (Corning, Manassas, Va., USA) at a final concentration of 0.5 mg/mL, and 5 μg/mL Doxycycline (Sigma, St. Louis, Mo., USA) and maintained in 5% CO2 at 37° C.
HepG2-Clone42 cells were seeded into black clear-bottom 96-well plates at a concentration of 6.0×10^4 cells/well. 24 hours post-seeding, the cells were treated with 200 μl/well of media containing five-fold serial dilutions of compounds in DMSO. DMSO alone was used as the no drug control. The final DMSO concentration in all wells was 0.5%.
The HBsAg ELISA kit (Alpha Diagnostic International, San Antonio, Tex., USE, Catalog #4110) was used to determine the level (semi-quantitative) of secreted HBV sAg. The HBSAg ELISA assay was performed following the manufacturer's protocol as described.
Step 1. Pipet 100 μL each of compound or DMSO treated samples into HBsAg ELISA plates. Seal plates and incubate at room temp for 60 minutes.
Step 2. Aspirate samples and wash three times with Wash Buffer. Dispense 100 μL of antibody-HRP conjugate to each well. Incubate at room temp for 30 minutes.
Step 3. Aspirate samples and wash three times with Wash Buffer. Add 100 μL of TMB Substrate to all wells and incubate 15 minutes at room temp.
Step 4. Dispense 100 μL of Stop Solution to each well. Measure absorbance of ELISA plate at 450 nm.
Dose-response curves were generated and the EC50 value was defined as the compound concentration at which HBsAg secretion was reduced 50% compared to the DMSO control.
EC50 values were determined as follows:
Determine the percent of HBsAg secretion inhibition. Calculate the percent inhibition on of HBsAg secretion inhibition using the following equation: […]
where XC is the absorbance signal from compound-treated well; MB is average absorbance signal (background signal) for column 12 (no cells+HBsAg ELISA sample buffer) and MD is average absorbance signal from DMSO-treated wells. Then calculate EC50 values by non-linear regression using a four parameter curve logistic equation.
The curve fit model employed is XLFit Dose Response One Site Model 204: y=(A+((B−A)/(1+(10^((C−x)*D))))) where A is the minimum y value, B is the maximum y value, C is the log EC50 value, and D is the slope factor. In the following table+≥100 nM; 100 nM>++≥1 nM; 1 nM>+++

Q: For `CC(C)(C)C1Cn2nc3c(OCCCO)cccc3c2-c2cc(=O)c(C(=O)O)cn21` (racemic) [Example 2.17, 6-(tert-butyl)-10-(3-hydroxypropoxy)-2-oxo-6,7-dihydro-2H-pyrido[2′,1′:3,4]pyrazino[1,2-b]indazole-3-carboxylic Acid], which EC50 is on record?
A: < 1 nM

Q: Which EC50 does the source give for `CC(C)(C)C1Cn2nc3c(OCCO)cccc3c2-c2cc(=O)c(C(=O)O)cn21` (racemic) [Example 2.18, 6-(tert-butyl)-10-(2-hydroxyethoxy)-2-oxo-6,7-dihydro-2H-pyrido[2′,1′:3,4]pyrazino[1,2-b]indazole-3-carboxylic Acid] here?
A: 1 to 100 nM

Q: With `CC(C)(C)C1Cn2nc3c(OCCCOC(F)(F)F)cccc3c2-c2cc(=O)c(C(=O)O)cn21` (racemic) [Example 2.19, 6-(tert-butyl)-2-oxo-10-(3-(trifluoromethoxy)propoxy)-6,7-dihydro-2H-pyrido[2′,1′:3,4]pyrazino[1,2-b]indazole-3-carboxylic Acid] as the compound, how does the EC50 read?
A: < 1 nM

Q: With `CC(C)(C)C1Cn2nc3c(OCCN4CCCC4=O)cccc3c2-c2cc(=O)c(C(=O)O)cn21` (racemic) [Example 2.20, 6-(tert-butyl)-2-oxo-10-(2-(2-oxopyrrolidin-1-yl)ethoxy)-6,7-dihydro-2H-pyrido[2′,1′:3,4]pyrazino[1,2-b]indazole-3-carboxylic Acid] as the compound, how does the EC50 read?
A: 1 to 100 nM

Q: With `COCCOCCCOc1cccc2c3n(nc12)CC(C(C)(C)C)n1cc(C(=O)O)c(=O)cc1-3` (racemic) [Example 2.21, 6-(tert-butyl)-10-(3-(2-methoxyethoxy)propoxy)-2-oxo-6,7-dihydro-2H-pyrido[2′,1′:3,4]pyrazino[1,2-b]indazole-3-carboxylic Acid] as the compound, how does the EC50 read?
A: < 1 nM

Q: Which EC50 does the source give for `CC(C)(C)C1Cn2nc3c(OCC4COCCO4)cccc3c2-c2cc(=O)c(C(=O)O)cn21` (racemic) [Example 2.22, 10-((1,4-dioxan-2-yl)methoxy)-6-(tert-butyl)-2-oxo-6,7-dihydro-2H-pyrido[2′,1′:3,4]pyrazino[1,2-b]indazole-3-carboxylic Acid] here?
A: 1 to 100 nM

Q: For `CC(C)(C)C1Cn2nc3c(OCC(=O)O)cccc3c2-c2cc(=O)c(C(=O)O)cn21` (racemic) [Example 2.23, 6-(tert-butyl)-10-(carboxymethoxy)-2-oxo-6,7-dihydro-2H-pyrido[2′,1′:3,4]pyrazino[1,2-b]indazole-3-carboxylic Acid], which EC50 is on record?
A: 1 to 100 nM

Q: Which EC50 does the source give for `CC(C)(C)C1Cn2nc3c(OCC4(CS(C)(=O)=O)CC4)cccc3c2-c2cc(=O)c(C(=O)O)cn21` (racemic) [Example 2.24, 6-(tert-butyl)-10-((1-((methylsulfonyl)methyl)cyclopropyl)methoxy)-2-oxo-6,7-dihydro-2H-pyrido[2′,1′:3,4]pyrazino[1,2-b]indazole-3-carboxylic Acid] here?
A: > 100 nM

Q: Which EC50 does the source give for `CC(C)(C)C1Cn2nc3c(OC4COC4)cccc3c2-c2cc(=O)c(C(=O)O)cn21` (racemic) [Example 2.26, 6-(tert-butyl)-10-(oxetan-3-yloxy)-2-oxo-6,7-dihydro-2H-pyrido[2′,1′:3,4]pyrazino[1,2-b]indazole-3-carboxylic Acid] here?
A: 1 to 100 nM

Q: How did the EC50 turn out when `CC(C)(C)C1Cn2nc3c(OC4CCNCC4)cccc3c2-c2cc(=O)c(C(=O)O)cn21` (racemic) [Example 2.27, 6-(tert-butyl)-2-oxo-10-(piperidin-4-yloxy)-6,7-dihydro-2H-pyrido[2′,1′:3,4]pyrazino[1,2-b]indazole-3-carboxylic Acid] was run?
A: > 100 nM

Q: How did the EC50 turn out when `CC(C)(C)C1Cn2nc3c(OCC(O)CO)cccc3c2-c2cc(=O)c(C(=O)O)cn21` (racemic) [Example 2.28, 6-(tert-butyl)-10-(2,3-dihydroxypropoxy)-2-oxo-6,7-dihydro-2H-pyrido[2′,1′:3,4]pyrazino[1,2-b]indazole-3-carboxylic Acid] was run?
A: > 100 nM

Q: Which EC50 does the source give for `CC(C)(C)C1Cn2nc3c(OC4CCC4)cccc3c2-c2cc(=O)c(C(=O)O)cn21` (racemic) [Example 2.29, 6-(tert-butyl)-10-cyclobutoxy-2-oxo-6,7-dihydro-2H-pyrido[2′,1′:3,4]pyrazino[1,2-b]indazole-3-carboxylic Acid] here?
A: < 1 nM

Q: For `CC(C)(C)C1Cn2nc3c(OCCCS(C)(=O)=O)cccc3c2-c2cc(=O)c(C(=O)O)cn21` (racemic) [Example 2.30, 6-(tert-butyl)-10-(3-(methylsulfonyl)propoxy)-2-oxo-6,7-dihydro-2H-pyrido[2′,1′:3,4]pyrazino[1,2-b]indazole-3-carboxylic Acid], which EC50 is on record?
A: 1 to 100 nM

Q: For `COCCCOc1cccc2c3n(nc12)CC(C(C)(C)C)n1cc(C(=O)O)c(=O)cc1-3` (racemic) [Example 2.31, 6-(tert-butyl)-10-(3-methoxypropoxy)-2-oxo-6,7-dihydro-2H-pyrido[2′,1′:3,4]pyrazino[1,2-b]indazole-3-carboxylic Acid], which EC50 is on record?
A: < 1 nM

Q: For `CC(C)(C)C1Cn2nc3c(OCC4CNC4)cccc3c2-c2cc(=O)c(C(=O)O)cn21` (racemic) [Example 2.32, 10-(azetidin-3-ylmethoxy)-6-(tert-butyl)-2-oxo-6,7-dihydro-2H-pyrido[2′,1′:3,4]pyrazino[1,2-b]indazole-3-carboxylic Acid], which EC50 is on record?
A: > 100 nM

Q: For `CN(C)C(=O)COc1cccc2c3n(nc12)CC(C(C)(C)C)n1cc(C(=O)O)c(=O)cc1-3` (racemic) [Example 2.36, 6-(tert-butyl)-10-(2-(dimethylamino)-2-oxoethoxy)-2-oxo-6,7-dihydro-2H-pyrido[2′,1′:3,4]pyrazino[1,2-b]indazole-3-carboxylic Acid], which EC50 is on record?
A: < 1 nM

Q: For `CC(C)(C)C1Cn2nc3c(OC4CCOC4)cccc3c2-c2cc(=O)c(C(=O)O)cn21` (racemic) [Example 2.37, 6-(tert-butyl)-2-oxo-10-((tetrahydrofuran-3-yl)oxy)-6,7-dihydro-2H-pyrido[2′,1′:3,4]pyrazino[1,2-b]indazole-3-carboxylic Acid], which EC50 is on record?
A: 1 to 100 nM

Q: Which EC50 does the source give for `CC(C)(C)C1Cn2nc3c(OC4CCOCC4)cccc3c2-c2cc(=O)c(C(=O)O)cn21` (racemic) [Example 2.38, 6-(tert-butyl)-2-oxo-10-((tetrahydro-2H-pyran-4-yl)oxy)-6,7-dihydro-2H-pyrido[2′,1′:3,4]pyrazino[1,2-b]indazole-3-carboxylic Acid] here?
A: 1 to 100 nM

Q: For `CC(C)(C)C1Cn2nc3c(OCC4CC(F)(F)C4)cccc3c2-c2cc(=O)c(C(=O)O)cn21` (racemic) [Example 2.39, 6-(tert-butyl)-10-((3,3-difluorocyclobutyl)methoxy)-2-oxo-6,7-dihydro-2H-pyrido[2′,1′:3,4]pyrazino[1,2-b]indazole-3-carboxylic Acid], which EC50 is on record?
A: < 1 nM

Q: With `CC(C)(C)C1Cn2nc3c(OCCC(F)(F)F)cccc3c2-c2cc(=O)c(C(=O)O)cn21` (racemic) [Example 2.40, 6-(tert-butyl)-2-oxo-10-(3,3,3-trifluoropropoxy)-6,7-dihydro-2H-pyrido[2′,1′:3,4]pyrazino[1,2-b]indazole-3-carboxylic Acid] as the compound, how does the EC50 read?
A: < 1 nM

Q: For `CC(C)(C)C1Cn2nc3c(OCCF)cccc3c2-c2cc(=O)c(C(=O)O)cn21` (racemic) [Example 2.41, 6-(tert-butyl)-10-(2-fluoroethoxy)-2-oxo-6,7-dihydro-2H-pyrido[2′,1′:3,4]pyrazino[1,2-b]indazole-3-carboxylic Acid], which EC50 is on record?
A: < 1 nM

Q: With `CCOc1cccc2c3n(nc12)CC(C(C)(C)C)n1cc(C(=O)O)c(=O)cc1-3` (racemic) [Example 2.42, 6-(tert-butyl)-10-ethoxy-2-oxo-6,7-dihydro-2H-pyrido[2′,1′:3,4]pyrazino[1,2-b]indazole-3-carboxylic Acid] as the compound, how does the EC50 read?
A: < 1 nM
